The assay deals with 11β-HSD1 (Homo sapiens, UniProt P28845). Put plainly: biochemical. The settings on record: for IC50: IC50 Range, Biological Test Example 1, microsomes from CHO cells overexpressing human 11β-HSD1.
Where [1] appears, read: read-out: Average % inhibition at 111.1 nM, Biological Test Example 1, 111.1 nM compound.
The mark [2] stands for this setting: read-out: Average % inhibition at 100 nM, Biological Test Example 1, 100 nM compound.
Where [3] appears, read: read-out: Average % inhibition at 100 nM.

Like-named read-outs stand apart in the source and are kept apart here.

11β-HSD1, sequence (P28845 whole entry): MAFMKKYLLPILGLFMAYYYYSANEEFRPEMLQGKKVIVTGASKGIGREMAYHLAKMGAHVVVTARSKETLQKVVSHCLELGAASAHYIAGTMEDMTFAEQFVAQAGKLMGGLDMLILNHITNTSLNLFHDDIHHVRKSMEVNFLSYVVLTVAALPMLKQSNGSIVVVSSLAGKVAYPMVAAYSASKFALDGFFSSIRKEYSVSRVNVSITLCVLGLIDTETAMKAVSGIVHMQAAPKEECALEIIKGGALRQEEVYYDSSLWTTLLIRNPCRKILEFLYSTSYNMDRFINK

The molecule `C=CC[C@]1(c2ccc(F)cc2)CCN([C@@H](C)c2ccc(C3CC3)cc2)C(=O)O1` [EXAMPLE 123, (R)-6-allyl-3-((S)-1-(4-cyclopropylphenyl)ethyl)-6-(4-fluorophenyl)-1,3-oxazinan-2-one] came in with an IC50 below 100 nM. In addition, under setting [1], the inhibition at 0.1111 µM was found to be 97.6%.

The molecule `C=CC[C@]1(c2ccc(F)cc2)CCN([C@@H](C)c2ccc(C(=O)OC)cc2)C(=O)O1` [EXAMPLE 124, Methyl 4-((S)-1-((R)-6-allyl-6-(4-fluorophenyl)-2-oxo-1,3-oxazinan-3-yl)ethyl)benzoate] showed a half-maximal inhibitory concentration (IC50) below 100 nM. Under setting [2], the inhibition at 0.1 µM is 95.2%. The inhibition at 0.1111 µM under setting [1] turned out to be 96.8%.

The molecule `C[C@@H](c1ccc(C2CC2)cc1)N1CC[C@](CCCO)(c2ccc(F)cc2)OC1=O` [EXAMPLE 125, (R)-3-((S)-1-(4-cyclopropylphenyl)ethyl)-6-(4-fluorophenyl)-6-(3-hydroxypropyl)-1,3-oxazinan-2-one] yielded a half-maximal inhibitory concentration (IC50) below 100 nM. Under setting [2], the inhibition at 0.1 µM came to 98.3%. Moreover, the inhibition at 0.1111 µM under setting [1] amounted to 94%.

`O=C1O[C@@](CCO)(c2ccccc2)CCN1c1cccc(-c2ccc(F)cc2)[n+]1[O-]` [EXAMPLE 126, (S)-2-(4-fluorophenyl)-6-(6-(2-hydroxyethyl)-2-oxo-6-phenyl-1,3-oxazinan-3-yl)pyridine 1-oxide]: the half-maximal inhibitory concentration (IC50) was below 100 nM. Besides, under setting [2], the inhibition at 0.1 µM was 79%. In addition, the inhibition at 0.1111 µM under setting [1] is 80.7%.

Take `COC(=O)c1ccc([C@H](C)N2CC[C@](CCCO)(c3ccc(F)cc3)OC2=O)cc1` [EXAMPLE 127, Methyl 4-((S)-1-((R)-6-(4-fluorophenyl)-6-(3-hydroxypropyl)-2-oxo-1,3-oxazinan-3-yl)ethyl)benzoate]: the IC50 was below 100 nM. Also, the inhibition at 0.1 µM under setting [2] worked out at 86.3%.

Regarding `C=CCC1(c2ccc(F)cc2)CCN(C(C)c2ccc(-c3ccc(F)cc3F)cn2)C(=O)O1` (centres unmarked) [EXAMPLE 131, 6-allyl-3-(1-(5-(2,4-difluorophenyl)pyridin-2-yl)ethyl)-6-(4-fluorophenyl)-1,3-oxazinan-2-one], the IC50 was above 1000 nM. In addition, the inhibition at 0.1 µM under setting [2] is 6.6%. In addition, under setting [1], the inhibition at 0.1111 µM turned out to be 11.3%.

For `O=C1OC(CCO)(c2ccccc2F)CCN1c1cccc(-c2ccc(F)cc2F)[n+]1[O-]` (centres unmarked) [EXAMPLE 132, 2-(2,4-difluorophenyl)-6-(6-(2-fluorophenyl)-6-(2-hydroxyethyl)-2-oxo-1,3-oxazinan-3-yl)pyridine 1-oxide], the IC50 lay in the range of 100 to 1000 nM. Besides, the inhibition at 0.1111 µM under setting [1] came out at 30.4%.

The molecule `O=C1OC(CCO)(c2ccccc2F)CCN1c1ccc(Cl)c(-c2ccc(F)cc2)n1` (centres unmarked) [EXAMPLE 133, 3-(5-chloro-6-(4-fluorophenyl)pyridin-2-yl)-6-(2-fluorophenyl)-6-(2-hydroxyethyl)-1,3-oxazinan-2-one] showed an IC50 below 100 nM. The inhibition at 0.1 µM under setting [3] worked out at 85.8%. The inhibition at 0.1111 µM (read-out: Average % inhibition at 111.1 nM) was 95.4%.

Molecule `O=C1OC(CCO)(c2ccccc2F)CCN1c1ccc(Cl)c(-c2ccc(F)cc2F)n1` (centres unmarked) [EXAMPLE 135, 3-(5-chloro-6-(2,4-difluorophenyl)pyridin-2-yl)-6-(2-fluorophenyl)-6-(2-hydroxyethyl)-1,3-oxazinan-2-one] displayed an IC50 below 100 nM. Besides, under setting [2], the inhibition at 0.1 µM was 88.9%. The inhibition at 0.1111 µM under setting [1] amounted to 93.8%.

Molecule `C[C@@H](c1ccc(C(=O)O)cc1)N1CC[C@](CCCO)(c2ccc(F)cc2)OC1=O` [EXAMPLE 142, 4-((S)-1-((R)-6-(4-fluorophenyl)-6-(3-hydroxypropyl)-2-oxo-1,3-oxazinan-3-yl)ethyl)benzoic acid] had an IC50 of 100 to 1000 nM. For the same molecule, the inhibition at 0.1 µM under setting [2] stood at 34.4%. Moreover, the inhibition at 0.1111 µM under setting [1] is 27.4%.

`C=CC[C@]1(c2ccc(F)cc2)CCN([C@@H](C)c2ccc(C(N)=O)cc2)C(=O)O1` [EXAMPLE 153, 4-((S)-1-((R)-6-allyl-6-(4-fluorophenyl)-2-oxo-1,3-oxazinan-3-yl)ethyl)benzamide] displayed a 50% inhibitory concentration (IC50) of 100 to 1000 nM. Further, under setting [2], the inhibition at 0.1 µM was 27%. Besides, the inhibition at 0.1111 µM under setting [1] came out at 26.6%.

As to `C[C@@H](c1ccc(CO)cc1)N1CC[C@](CCCO)(c2ccc(F)cc2)OC1=O` [EXAMPLE 154, (R)-6-(4-fluorophenyl)-3-((S)-1-(4-(hydroxymethyl)phenyl)ethyl)-6-(3-hydroxypropyl)-1,3-oxazinan-2-one], the IC50 is below 100 nM. Further, the inhibition at 0.1111 µM under setting [1] came out at 79%.

The molecule `C=CC[C@]1(c2ccc(F)cc2)CCN([C@@H](C)c2ccc(C(=O)NC)cc2)C(=O)O1` [EXAMPLE 155, 4-((S)-1-((R)-6-allyl-6-(4-fluorophenyl)-2-oxo-1,3-oxazinan-3-yl)ethyl)-N-methylbenzamide] showed an IC50 of 100 to 1000 nM. Moreover, under setting [1], the inhibition at 0.1111 µM was found to be 45.6%.

Consider `C=CC[C@]1(c2ccc(F)cc2)CCN([C@@H](C)c2ccc(C(C)(C)O)cc2)C(=O)O1` [EXAMPLE 156, (R)-6-allyl-6-(4-fluorophenyl)-3-((S)-1-(4-(2-hydroxypropan-2-yl)phenyl)ethyl)-1,3-oxazinan-2-one], for which the IC50 is below 100 nM. In addition, the inhibition at 0.1111 µM under setting [1] amounted to 93.8%.

For the molecule `C=CC[C@@]1(c2cccs2)CCN([C@@H](C)c2ccc(-c3ccc(F)cc3F)cc2)C(=O)O1` [EXAMPLE 165, (S)-6-allyl-3-((S)-1-(2′,4′-difluorobiphenyl-4-yl)ethyl)-6-(thiophen-2-yl)-1,3-oxazinan-2-one], the IC50 is below 100 nM. Besides, the inhibition at 0.1111 µM under setting [1] was found to be 92.9%.

In the case of `C[C@@H](c1ccc(-c2ccc(F)cc2)cc1)N1CC[C@@](CCCO)(c2cccs2)OC1=O` [EXAMPLE 166, (S)-3-((S)-1-(4′-fluorobiphenyl-4-yl)ethyl)-6-(3-hydroxypropyl)-6-(thiophen-2-yl)-1,3-oxazinan-2-one], the 50% inhibitory concentration (IC50) is below 100 nM. The inhibition at 0.1111 µM under setting [1] stood at 81.8%.

Turning to `CC(O)C[C@]1(c2ccccc2)CCN([C@@H](C)c2ccc(-c3ccc(F)cc3F)cc2)C(=O)O1` (stereo partly drawn) [EXAMPLE 170, (6S)-3-((S)-1-(2′,4′-difluorobiphenyl-4-yl)ethyl)-6-(2-hydroxypropyl)-6-phenyl-1,3-oxazinan-2-one], the IC50 was below 100 nM. The inhibition at 0.1 µM under setting [2] is 97%.

Take `C[C@@H](c1ccc(-c2ccc(F)cc2F)cc1)N1CC[C@](CC(=O)O)(c2ccc(F)cc2)OC1=O` [EXAMPLE 174, 2-((S)-3-((S)-1-(2′,4′-difluorobiphenyl-4-yl)ethyl)-6-(4-fluorophenyl)-2-oxo-1,3-oxazinan-6-yl)acetic acid]: the half-inhibitory concentration (IC50) is 100 to 1000 nM. Under setting [1], the inhibition at 0.1111 µM is 48%.

Molecule `C=CC[C@]1(c2ccc(F)cc2)CCN([C@@H](C)c2ccc(C#N)cc2)C(=O)O1` [EXAMPLE 192, 4-((S)-1-((R)-6-allyl-6-(4-fluorophenyl)-2-oxo-1,3-oxazinan-3-yl)ethyl)benzonitrile] yielded a 50% inhibitory concentration (IC50) below 100 nM. Also, under setting [2], the inhibition at 0.1 µM came to 70.7%.

Molecule `COc1ccc([C@H](C)N2CC[C@](CCO)(c3ccc(F)cc3)OC2=O)cc1` [EXAMPLE 195, (S)-6-(4-fluorophenyl)-6-(2-hydroxyethyl)-3-((S)-1-(4-methoxyphenyl)ethyl)-1,3-oxazinan-2-one] showed a concentration for half-maximal inhibition (IC50) below 100 nM. Besides, the inhibition at 0.1 µM under setting [2] was found to be 96.8%.

The molecule `COCc1ccc([C@H](C)N2CC[C@](CCCO)(c3ccccc3)OC2=O)cc1` [EXAMPLE 199, (R)-6-(3-hydroxypropyl)-3-((S)-1-(4-(methoxymethyl)phenyl)ethyl)-6-phenyl-1,3-oxazinan-2-one] had an IC50 below 100 nM. Moreover, the inhibition at 0.1 µM under setting [3] was 90.3%.

For the origin of these results see patent US8575156B2, “Cyclic inhibitors of 11β-hydroxysteroid dehydrogenase 1” (Vitae Pharmaceuticals, Inc., priority 2007, dated 2013).
